Values quoted from earlier work in patent US4130647A, “Methods for treating congestive heart failure and ischemic heart disease” (priority 1977, dated 1978).

Test system: patients with congestive heart failure
Conditions: cited from earlier work

| Structure (SMILES) | left ventricular filling pressures (heart failure) | side effects (in vivo) | Pulmonary Wedge Pressure (left ventricular failure) | right atrial pressure and forearm veins (left ventricular failure) | cardiac output (when left ventricular filling pressures fall below the upper limits of normal) |
| --- | --- | --- | --- | --- | --- |
| NNc1nncc2ccccc12 [hydralazine] | does not usually lower left ventricular filling pressures | serologic side effects and leading to sodium retention | only slightly reduces pulmonary wedge pressure | does not reduce right atrial pressure or dilate forearm veins | – |
| O=[N+]([O-])OCC(CO[N+](=O)[O-])O[N+](=O)[O-] [nitroglycerin] | – | – | – | – | A similar phenomenon is observed |
